Each structure is given as a SMILES string.

We go through 90 molecules from a melting point compilation (Tetko et al.; mined from patent text by program, amines drawn as free bases though some values may be those of a salt).

For `Cc1cc2cc(Nc3ncnc4cc(-c5ccccc5)sc34)ccc2[nH]1`, the melting point was 218 to 220 °C.
For the molecule `CC(C)(C)OC(=O)N1CCC[C@@H](OC(=O)c2ccc(OC(C)(C)C)cc2)[C@H](NC(=O)c2ccc(OC(C)(C)C)cc2)C1`, the melting point was 126 to 128 °C.
For `C=CCn1c(=O)c(C(=O)OCC)c(N2CCN(C(=O)c3cccs3)CC2)c2cccnc21`, the melting point was in the range of 89 to 96 °C.
With `C=CCOC(=O)C1N2C(=O)C(NC(=O)CC(=O)OCC)C2S(=O)(=O)C1(C)C` (stereo not given), the melting point is 114 to 115 °C.
In turn, `O=C1NC(=O)C2CCCC12` (stereo not given) registered a melting point of 89 °C.
`CC1CCC(NS(N)(=O)=O)CC1` (stereo not given) came in with a melting point of 109 to 110 °C.
In turn, `CCCCN(N=Nc1[nH]cnc1C(N)=O)C(C)=N` came in with a melting point of 191 °C.
The same measure for `CS(=O)(=O)c1ccc(-c2cc(C(F)(F)F)nn2-c2ccc(CO)cc2)cc1`: 129 to 133 °C; for `O=Cc1ccc2cccnc2c1`: 56 °C; for `CC(C)S(=O)(=O)C(C#N)=Cc1c(Cl)n(C)c2ccccc12`: 141 °C.
The molecule `O=C(C=C1CCN(CCc2ccc(F)cc2)CC1)NCc1ccc(F)c(F)c1` registered a melting point of 117 to 120 °C.
The molecule `OC1(c2ccc(Cl)cc2)CCNC1` (stereo not given) had a melting point of 79 to 80 °C.
As to `CC(c1ccc(OCc2ccc(Cl)cc2Cl)cc1)n1ccnc1` (stereo not given), the melting point lay within 103 to 106 °C.
Molecule `CC(C)Oc1cc(/C=C/S(=O)(=O)NC(=O)OC(C)(C)C)n(Cc2ccc(Cl)cc2Cl)n1` showed a melting point of 152 to 153 °C.
`Cc1nn(-c2ccc(Cl)nn2)c(C)c1Br`: the melting point was in the range of 143 to 145 °C.
On to `CCCn1cc(Cc2ccc(C(=O)OC)cc2OC)c2cc(C=C(C)C(=O)O)ccc21`, for which the melting point was in the range of 159 to 161 °C.
The same measure for `CCOC(=O)C1CCCc2[nH]c3c(C)ccc(OC)c3c21` (stereo not given): 119 to 122 °C.
The same measure for `Cc1cccc(C)c1NC=O`: 163 to 164 °C.
For `N#CC1CCN(C(=O)c2ccc3nonc3c2)CC1`, the melting point fell in the range of 104 to 107 °C.
Consider `O=C(c1cccc(C(F)(F)F)c1)c1ncccc1C(O)=NNc1c(Cl)cc(C(F)(F)F)cc1Cl`, for which the melting point lay within 92 to 96 °C.
`CSc1c[nH]c2ncccc12` came in with a melting point of 115 to 116 °C.
The same measure for `CCN1C(=O)Cc2cnc(N3CCN(Cc4ccccc4)CC3)nc21`: 110 to 113 °C; for `CCOC(=O)Cc1ccc(NC(=O)C(COc2ccccc2Cl)NS(=O)(=O)c2ccc(Cl)cc2)cc1` (racemic): 141 to 142 °C.
In the case of `CN1CCC(c2[nH]c(=O)c3ccccc3c2-c2ccc(F)cc2)CC1` it was 269 to 271 °C; in that of `O=C(NC/C=C\COc1cc(CN2CCCCC2)ccn1)NC1CCCCC1`, 131 to 132 °C.
The same measure for `N#Cc1c2c(c3c(c1N1CCCCC1)Cc1ccccc1-3)-c1ccccc1C2`: 200 to 202 °C; for `CC(C)(C)CCCOC1CCC2C3C(=O)C=C4CC(O)CCC4(C)C3CCC12C` (stereo not given): 203 to 205 °C.
Take `CCOC(=O)Nc1cc2c(cc1F)nc(C(F)(F)F)n2Cc1cccc(Cl)c1`: the melting point lay within 144 to 146 °C.
In the case of `CC1CCC(C(C)C)C(C(C#Cc2ccc(Cc3ccc(F)cc3)o2)N(O)C(N)=O)C1` (stereo not given), the melting point was in the range of 154 to 156 °C.
In the case of `CN(C)c1ccc(C(N)=NNc2ccc([N+](=O)[O-])cc2)cc1`, the melting point was 174 °C.
With `CC(=O)CCC(C)C1CC=C2C3=C(CCC21C)C1(C)CCC(O)C(C)(C)C1CC3` (stereo not given), the melting point lay within 183 to 185 °C.
In the case of `NC(=O)Cc1nc(C(=O)c2ccc(F)cc2)no1` it was 197 to 199 °C.
`CCCCc1c(C(=O)O)sc2ccc([N+](=O)[O-])cc12` came in with a melting point of 238 to 240 °C.
The molecule `CNC(=S)NCCSCc1ncccc1N` returned a melting point of 99.5 °C.
`CCc1c([N+](=O)[O-])ccc2cc[nH]c12`: the melting point stood at 50 °C.
In the case of `CC(=O)Nc1nc(CCc2ccc(CCBr)cc2)cs1` it was 153 to 154 °C; in that of `CCC1(CCCCCl)C(=O)Nc2c(Cl)cc(Cl)cc21` (stereo not given), 65 to 67 °C; in that of `CCOC(=O)C1(C(=O)OCC)COC2(CC(C)(C)N(C(C)=O)C(C)(C)C2)OC1`, 75 to 77 °C.
The same measure for `CC1CCC(NC(=O)NS(=O)(=O)c2ccc(CCNC(=O)N3CC4CCCCC4C3=O)cc2)CC1` (stereo not given): 153 to 155 °C; for `Cc1ccccc1-c1ccc(C(=O)N2Cc3ccc(C(=O)NCCc4ccc(O)cc4)n3Cc3ccccc32)cc1C`: 129 to 131 °C; for `CSC(=S)NCc1c[nH]c2ccccc12`: 132 to 133 °C.
`CCOC(=O)C(=O)Nc1ccc(C(=O)O)cc1NC(=O)C(=O)OCC` gave a melting point of 251 °C.
The same measure for `COc1ccc(CN2Cc3cncn3C(c3ccc(-c4ccsc4)cc3)C2=O)cc1` (stereo not given): 162 to 164 °C; for `Cc1cc2c(cc1Br)-c1cc(C)c(Br)c(C)c1OP2(=O)O`: 240 °C.
The molecule `O=C1C[C@H]2CCN(Cc3ccccc3)C[C@H]2c2ccc(F)cc21` (relative stereo) displayed a melting point of more than 220 °C.
The same measure for `CN1C(=O)CSC1c1cccnc1` (stereo not given): 96.5 to 97.5 °C.
In the case of `COc1ccc(N2CCN(c3c(C)c(C)c4c(c3C)CC3(CCCC3)O4)CC2)cc1` it was 137 to 139 °C; in that of `CCn1c(=O)[nH]c(=O)c2c(-c3ccc(F)cc3)c(/C=C/C=O)c(C3CC3)nc21`, 236 °C.
`C#CCCCOc1c(C)cc(C(=O)O)cc1C` displayed a melting point of 129 to 130 °C.
Molecule `COC(=O)N=C(NC(=O)Nc1ccc(Cl)c(C(=O)OC(C)C)c1)SC` displayed a melting point of 93 to 94 °C.
The same measure for `CC(=O)OC(C)OC(=O)[C@H](Cc1ccc(-c2c(C)n(C)c(=O)n(C)c2=O)cc1)NC(=O)c1c(Cl)cccc1Cl` (stereo not given in full): 168 to 170 °C.
In the case of `C#Cc1c(N)nc(-c2ccc(Cl)c(OC)c2F)nc1C(=O)OC` it was 174 to 176 °C.
In the case of `COC(=O)CCc1cc2cc(F)ccc2n1S(=O)(=O)c1ccccc1` it was 79 to 80 °C.
In turn, `CCOC(=O)C(C)(CCCN(C)CCc1ccc(OC)c(OC)c1)c1ccc(OC)c(OC)c1` (stereo not given) displayed a melting point of 118 to 121 °C.
In the case of `O=C(O)CCCc1ccc(C(=O)CCCc2ccccc2)cc1` it was 111 to 112 °C; in that of `N#CSc1nc(Nc2ccc(Cl)cc2)ncc1[N+](=O)[O-]`, 240 to 242 °C.
`CC(=O)N(C)c1c(N(C)C)cc(C(=O)CS(C)(=O)=O)cc1N(C)C` came in with a melting point of 120 °C.
The same measure for `C[C@@H]1N=C(c2ccccc2F)c2cc([N+](=O)[O-])ccc2N(C)C1=O`: 95 to 110 °C; for `COc1ccc(-n2ccc(O)n2)cc1`: 167 to 170 °C; for `Cc1ccc(S(=O)(=O)Nc2nc(-c3cccc([N+](=O)[O-])c3)cs2)cc1`: 187 to 189 °C.
The same measure for `O=C(c1ccc(F)cc1)N1CCCC(F)(c2nc(-c3ccc[nH]3)no2)C1` (stereo not given): 115 to 118 °C.
The same measure for `O=c1[nH]ncc2[nH]c(-c3ccc(OC(F)F)c(OC4CC4)c3)cc12`: 287 to 292 °C.
Molecule `NS(=O)(=O)c1cc2c(c(C(=O)O)c1)OCCO2` displayed a melting point of 272 to 274 °C.
The same measure for `COc1ccc(C(NCCNC(c2ccccc2)c2ccc(OC)cc2)c2ccccc2)cc1` (stereo not given): 97 to 98 °C.
The same measure for `Cc1cc(-c2nc3ccccc3c(=O)n2-c2ccc(C(F)(F)F)cc2)cc(C)c1OCCO`: 160 to 161 °C.
In the case of `O=C(NCc1ccc(-c2n[nH]c3c2Cc2ccccc2-3)s1)N1CCOCC1`, the melting point fell in the range of 240 to 247 °C.
The molecule `NC(=O)N1C(=O)C(C(=O)c2cc(Cl)cs2)c2ncc(Cl)cc21` (stereo not given) had a melting point of more than 250 °C.
In the case of `O=c1[nH]cccc1-c1cccn2nc(Nc3ccc4ncccc4c3)nc12` it was more than 250 °C; in that of `Cn1cc(C(=O)NCc2ccc(C#N)cc2)c(=O)c2cc(C#CCO)ccc21`, 230 to 232 °C; in that of `FC(F)(F)COc1ccccc1Sc1nc[nH]n1`, 100 to 101 °C.
In the case of `CNCCCNCCCSP(=O)(O)O` it was 115 to 120 °C; in that of `CC(C)(C)OC(=O)Nc1c(F)cccc1OCc1ccccc1`, 103 to 106 °C.
In turn, `CCCc1ccc2nc(Cl)c(S(=O)(=O)Cl)n2n1` registered a melting point of 94.2 to 95.5 °C.
In the case of `CC(=O)NCCCC(=O)c1ccc(Cl)cc1CCC(=O)N1CCN(C)CC1` it was 126 to 128 °C; in that of `CCn1ncc2c3onc(-c4ccc(OC)cc4)c3cnc21`, 156 to 157 °C; in that of `COc1ccccc1N1CCN(CC(C(=O)NC(C)(C)C)c2ccccc2)CC1` (stereo not given), 160 to 163 °C.
The same measure for `O=C(Nc1ccc(F)cc1)NC1CC1`: 205 °C; for `CSc1c(CO)sc2c1CCN(C)CC2c1ccccc1` (stereo not given): 146 °C.
In the case of `O=C(c1ccccc1)c1cc(Cl)ccc1-n1c(CN2C(=O)c3ccccc3C2=O)nnc1CN1C(=O)c2ccccc2C1=O` it was 250 to 251 °C.
Take `COc1cc(N2CCN(C[C@H](C)O)CC2)ccc1Nc1ncc2ccc(-c3ccccc3OC)n2n1`: the melting point is 76 to 85 °C.
In the case of `CCOC(=O)COc1ccc(S(=O)CCNS(=O)(=O)c2ccccc2)cc1` (stereo not given) it was 116 to 118 °C.
For `COc1ccc(-c2nc3ccc(C(=O)O)cc3nc2-c2ccc(OC)cc2)cc1`, the melting point lay in the range of 284 to 285 °C.
The same measure for `NC(=O)c1cc(Cl)cc(-c2cccc3cc(Cc4cccc(C(F)(F)F)c4)sc23)c1`: 139 to 140 °C.
In the case of `CCOc1cc(OCC)c2ccccc2c1O` it was 83 to 84 °C; in that of `Cc1cc(C(=O)Nc2c(NC(=O)CCl)ccc3c2C(=O)c2ccccc2C3=O)c(C)o1`, 207 to 208 °C.
`CCCCc1nc2c(N)nc3ccccc3c2n1CCCCNC(=O)c1ccccc1` gave a melting point of 174 to 175 °C.
`CC(S)C(O)(Cn1cncn1)c1ccc(F)cc1F` (stereo not given) displayed a melting point of 145 to 147 °C.
The same measure for `O=C(O)c1ccc(NC(=O)c2ccccc2-c2ccccc2)cc1Cl`: 217 to 219 °C.
`Cc1cc(OCc2nc3ccccc3s2)ccc1[N+](=O)[O-]` displayed a melting point of 145 to 147 °C.
Take `Nc1cccc(Oc2ccc(C(=O)c3cccc(C(=O)c4ccc(Oc5cccc(N)c5)cc4)c3)cc2)c1`: the melting point lay within 147 to 149 °C.
